Data reported in ChEMBL document CHEMBL1126872, “5-HT3 receptor antagonists. 3. Quinoline derivatives which may be effective in the therapy of irritable bowel syndrome” (J Med Chem, 1993).

Legend:
Rattus norvegicus [1] = assay: Effective dose causing reduction of serotonin effect at 5 min administered iv in Bezold-Jarisch reflex test; assay type: functional
[2] = target: Serotonin 3 (5-HT3) receptor; assay: Binding affinity towards [3H]quipazine labeled 5-hydroxytryptamine 3 receptor sites in HG108-15; assay type: protein-complex assay, Cavia porcellus
Rattus norvegicus [3] = assay: Inhibition of restraint stress induced defecation by oral administration (inhibition at 1 mg/kg)
Rattus norvegicus [4] = assay: Inhibitory dose causing inhibition of restraint stress induced defecation by oral administration; assay type: functional; settings: read-out: ID50 (the source's name)
Rattus norvegicus [5] = assay: Inhibitory dose causing inhibition of increase in castor oil induced diarrhea by oral administration at 1 ml/rat; assay type: functional; settings: read-out: ID50 (the source's name)
Rattus norvegicus [6] = organism: Rattus norvegicus; assay: Inhibition of wrap-restraint stress-induced colonic propulsion measured by the time required to expel a teflon ball inserted 3 cm into the rat colon; assay type: functional; settings: read-out: ID50 (the source's name)
Rattus norvegicus [7] = organism: Rattus norvegicus; assay: animal or person; assay type: functional; settings: sc, route subcutaneous, read-out: ID50 (the source's name)
Description: Inhibitory dose causing inhibition of increase in thyrotropin-releasing hormone (TRH) induced defecation by sc administration at 1 mg/kg

Rattus norvegicus [8] = organism: Rattus norvegicus; assay: animal or person; assay type: functional; settings: sc, dose mg/kg 1-10, route subcutaneous, read-out: ID50 (the source's name)
Description: Inhibitory dose causing inhibition of increase in 5-HT induced defecation by sc administration 1 to 10 mg/kg

Rattus norvegicus [9] = assay: Inhibition of restraint stress induced defecation by oral administration (inhibition percent at 1 mg/kg)
Rattus norvegicus [10] = assay: Inhibitory dose causing inhibition of increase in 5-HT induced defecation by sc administration at 1 to 10 mg/kg; assay type: functional; settings: dose mg/kg 1-10, route subcutaneous, read-out: ID50 (the source's name)
Rattus norvegicus [11] = assay: Inhibitory dose causing inhibition of restraint stress induced defecation by oral administration ((inhibition percent at 1 mg/kg); assay type: functional; settings: read-out: ID50 (the source's name)

SMILES	ED50 (Rattus norvegicus [1]) [µg/kg]	Ki [2] [nM]	ED50 (Rattus norvegicus [4]) [µg/kg]	Inhibition % at 1 mg/kg (Rattus norvegicus [9]) [%]	also measured
CCCCn1c(=O)c(C(=O)NC2CC3CCC(C2)N3C)c(O)c2cccnc21 (configuration not stated)	290	6.4	–	–	Inhibition % at 1 mg/kg (Rattus norvegicus [3]): 35%
CCn1c(=O)cc(C(=O)OC2CC3CCC(C2)N3C)c2ccccc21 (configuration not stated)	22	1.1	52	–	–
CC(C)Cn1c(=O)cc(C(=O)OC2CC3CCC(C2)N3C)c2ccccc21 (configuration not stated)	33	0.47	13	–	ED50 (Rattus norvegicus [5]): 1400 µg/kg; ED50 (Rattus norvegicus [6]): 10 µg/kg; ED50 (Rattus norvegicus [7]): 21 µg/kg; ED50 (Rattus norvegicus [8]): 18 µg/kg
CCCOc1cc(C(=O)NC2CC3CCC(C2)N3C)c2ccccc2n1 (configuration not stated)	1540	42	–	29	–
CC(C)n1c(=O)cc(C(=O)OC2CC3CCC(C2)N3C)c2ccccc21 (configuration not stated)	81	0.32	40	–	–
CCCCCCn1c(=O)cc(C(=O)OC2CC3CCC(C2)N3C)c2ccccc21 (configuration not stated)	86	1.1	66	–	–
CCOc1cc(C(=O)OC2CC3CCC(C2)N3C)c2ccccc2n1 (configuration not stated)	70	0.88	–	36	–
CCCCn1c(=O)cc(C(=O)NC2CC3CCC(C2)N3C)c2ccccc21 (configuration not stated)	370	60	–	47	–
CCCCCOc1cc(C(=O)OC2CC3CCC(C2)N3C)c2ccccc2n1 (configuration not stated)	1130	0.86	30000	–	–
CC(C)CCn1c(=O)cc(C(=O)OC2CC3CCC(C2)N3C)c2ccccc21 (configuration not stated)	59	1.5	41	–	–
CN1C2CCC1CC(NC(=O)c1cc(=O)n(-c3ccccc3)c3ccccc13)C2 (configuration not stated)	190	63	–	14	–
CN1C2CCC1CC(OC(=O)c1cc(=O)n(-c3ccccc3)c3ccccc13)C2 (configuration not stated)	44	0.51	–	59	–
CN1C2CCC1CC(OC(=O)c1cc(-c3ccccc3)nc3ccccc13)C2 (configuration not stated)	340	71	–	–	–
Cc1nccn1CC1CCc2c(c3ccccc3n2C)C1=O (configuration not stated) [ONDANSETRON]	–	–	27	–	ED50 (Rattus norvegicus [5]): 1400 µg/kg; ED50 (Rattus norvegicus [10]): 530 µg/kg; ED50 (Rattus norvegicus [6]): 1600 µg/kg; ED50 (Rattus norvegicus [7]): 310 µg/kg
CC(C)Oc1cc(C(=O)NC2CC3CCC(C2)N3C)c2ccccc2n1 (configuration not stated)	1860	53	39000	–	–
CC(C)COc1cc(C(=O)OC2CC3CCC(C2)N3C)c2ccccc2n1 (configuration not stated)	240	0.44	–	–	ED50 (Rattus norvegicus [11]): 36000 µg/kg
CN1C2CCC1CC(NC(=O)c1cnc3ccccc3c1O)C2 (configuration not stated)	0.1	1.5	1400	–	ED50 (Rattus norvegicus [5]): 790 µg/kg; ED50 (Rattus norvegicus [6]): 1800 µg/kg; ED50 (Rattus norvegicus [7]): 53 µg/kg; ED50 (Rattus norvegicus [8]): 690 µg/kg

SMILES	ED50 (Rattus norvegicus [1]) [µg/kg]	Ki [2] [nM]	ED50 (Rattus norvegicus [4]) [µg/kg]	Inhibition % at 1 mg/kg (Rattus norvegicus [9]) [%]	also measured
CCCCCCOc1cc(C(=O)OC2CC3CCC(C2)N3C)c2ccccc2n1 (configuration not stated)	7680	3.2	–	23	–
COc1cc(C(=O)OC2CC3CCC(C2)N3C)c2ccccc2n1 (configuration not stated)	420	0.58	45000	–	–
Cn1cc(C(=O)C2CCc3nc[nH]c3C2)c2ccccc21 (configuration not stated)	0.089	0.071	5.2	–	ED50 (Rattus norvegicus [5]): 1100 µg/kg; ED50 (Rattus norvegicus [6]): 69 µg/kg; ED50 (Rattus norvegicus [7]): 5.1 µg/kg; ED50 (Rattus norvegicus [8]): 13 µg/kg
CCCCOc1cc(C(=O)OC2CC3CCC(C2)N3C)c2ccccc2n1 (configuration not stated)	200	0.39	–	64	–
CN1C2CCC1CC(OC(=O)c1cc(=O)n(Cc3ccccc3)c3ccccc13)C2 (configuration not stated)	150	1.3	–	22	–
CN1C2CCC1CC(OC(=O)c1cc(=O)n(C)c3ccccc13)C2 (configuration not stated)	180	2.6	–	47	–
Cc1nc2ccccc2c(O)c1C(=O)NC1CC2CCC(C1)N2C (configuration not stated)	15	7.2	–	–	Inhibition % at 1 mg/kg (Rattus norvegicus [3]): 41%
CN1C2CCC1CC(NC(=O)c1c(O)c3ccccc3n(-c3ccccc3)c1=O)C2 (configuration not stated)	73	1.4	–	–	Inhibition % at 1 mg/kg (Rattus norvegicus [3]): 48%
CCCCCn1c(=O)cc(C(=O)OC2CC3CCC(C2)N3C)c2ccccc21 (configuration not stated)	59	0.96	73	–	–
CN1C2CCC1CC(OC(=O)c1cnc3ccccc3c1O)C2 (configuration not stated)	1.7	6.1	–	–	Inhibition % at 1 mg/kg (Rattus norvegicus [3]): 13%
CCCn1c(=O)cc(C(=O)OC2CC3CCC(C2)N3C)c2ccccc21 (configuration not stated)	330	0.45	170	–	–
CCCCn1c(=O)cc(C(=O)OC2CC3CCC(C2)N3C)c2ccccc21 (configuration not stated)	41	0.68	140	–	–
CCCn1c(=O)cc(C(=O)NC2CC3CCC(C2)N3C)c2ccccc21 (configuration not stated)	350	67	–	12	–
CCCCOc1cc(C(=O)NC2CC3CCC(C2)N3C)c2ccccc2n1 (configuration not stated)	540	19	–	43	–
CCCCn1c(=O)c(C(=O)NC2CC3CCC(C2)N3C)c(O)c2ccccc21 (configuration not stated)	290	0.48	–	–	Inhibition % at 1 mg/kg (Rattus norvegicus [3]): 61%
CC(C)Cc1cc(C(=O)OC2CC3CCC(C2)N3C)c2ccccc2n1 (configuration not stated)	5.6	0.69	–	–	Inhibition % at 1 mg/kg (Rattus norvegicus [3]): 28%
